Test results as given in PubChem BioAssay (NCI).
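Cells were grown in 96-well plates and exposed to each compound for 48 hours at five concentrations; endpoints were interpolated linearly between bracketing concentrations, or set to the highest concentration if not reached. TGI marks complete inhibition of growth.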

Test system: HOP-92 NSCLC
Experiment: NCI tumour cell line growth inhibition, 48 h

`O=C1CC(=O)c2c(N3CCCC3)sc(N3CCCC3)c21` and `CN(C)c1nc2nonc2nc1Nc1ccccc1` cannot be ordered by TGI: greater than 100 µM for the first, greater than 100 µM for the second.

Test system: 786-0 renal
Experiment: NCI tumour cell line growth inhibition, 48 h

First: CC1(C)OC(C(C)(C)O)C(C(C)(C)O)O1 (centres undefined)
Second: N#CC1=C(N)OC2=C(CCCc3ccc([N+](=O)[O-])cc32)C1c1ccccc1 (centres undefined)
The TGI of the first is higher: greater than 100 µM for the first, 26.9 µM for the second.

`COC(=O)[C@@H]1CCc2nc3ccccc3c(=O)n21` and `CN(C)c1nc2nonc2nc1Nc1ccccc1` cannot be ordered by TGI: greater than 100 µM for the first, greater than 100 µM for the second.

In the case of `O=C1CC(=O)c2c(N3CCCC3)sc(N3CCCC3)c21`, the TGI is reported as greater than 100 µM.

Test system: CAKI-1 renal
Experiment: NCI tumour cell line growth inhibition, 48 h

`CC1(C)OC(C(C)(C)O)C(C(C)(C)O)O1` (centres undefined) and `N#CC1=C(N)OC2=C(CCCc3ccc([N+](=O)[O-])cc32)C1c1ccccc1` (centres undefined) cannot be ordered by TGI: greater than 100 µM for the first, greater than 100 µM for the second.

`COC(=O)[C@@H]1CCc2nc3ccccc3c(=O)n21` and `O=C1CC(=O)c2c(N3CCCC3)sc(N3CCCC3)c21` cannot be ordered by TGI: greater than 100 µM for the first, greater than 100 µM for the second.

Test system: PC-3 prostate
Experiment: NCI tumour cell line growth inhibition, 48 h

Compared with `CC1(C)OC(C(C)(C)O)C(C(C)(C)O)O1` (centres undefined), `N#CC1=C(N)OC2=C(CCCc3ccc([N+](=O)[O-])cc32)C1c1ccccc1` (centres undefined) is lower in TGI: greater than 100 µM for the first, 44.7 µM for the second.

`O=C1CC(=O)c2c(N3CCCC3)sc(N3CCCC3)c21` and `CN(C)c1nc2nonc2nc1Nc1ccccc1` cannot be ordered by TGI: greater than 100 µM for the first, greater than 100 µM for the second.

Test system: HL-60(TB) leukemia
Experiment: NCI tumour cell line growth inhibition, 48 h

First: CC1(C)OC(C(C)(C)O)C(C(C)(C)O)O1 (centres undefined)
Second: N#CC1=C(N)OC2=C(CCCc3ccc([N+](=O)[O-])cc32)C1c1ccccc1 (centres undefined)
The TGI of the first is higher: greater than 100 µM for the first, 4.19 µM for the second.

`COC(=O)[C@@H]1CCc2nc3ccccc3c(=O)n21` and `CN(C)c1nc2nonc2nc1Nc1ccccc1` cannot be ordered by TGI: greater than 100 µM for the first, greater than 100 µM for the second.

`O=C1CC(=O)c2c(N3CCCC3)sc(N3CCCC3)c21` gave a TGI greater than 100 µM.

Test system: HS 578T breast
Experiment: NCI tumour cell line growth inhibition, 48 h

`CC1(C)OC(C(C)(C)O)C(C(C)(C)O)O1` (centres undefined) and `N#CC1=C(N)OC2=C(CCCc3ccc([N+](=O)[O-])cc32)C1c1ccccc1` (centres undefined) cannot be ordered by TGI: greater than 100 µM for the first, greater than 100 µM for the second.

`COC(=O)[C@@H]1CCc2nc3ccccc3c(=O)n21` and `CN(C)c1nc2nonc2nc1Nc1ccccc1` cannot be ordered by TGI: greater than 100 µM for the first, greater than 100 µM for the second.

`O=C1CC(=O)c2c(N3CCCC3)sc(N3CCCC3)c21` showed a TGI greater than 100 µM.

Test system: T-47D breast
Experiment: NCI tumour cell line growth inhibition, 48 h

First: CC1(C)OC(C(C)(C)O)C(C(C)(C)O)O1 (centres undefined)
Second: N#CC1=C(N)OC2=C(CCCc3ccc([N+](=O)[O-])cc32)C1c1ccccc1 (centres undefined)
The TGI of the first is higher: greater than 100 µM for the first, 30.5 µM for the second.

`COC(=O)[C@@H]1CCc2nc3ccccc3c(=O)n21` and `CN(C)c1nc2nonc2nc1Nc1ccccc1` cannot be ordered by TGI: greater than 100 µM for the first, greater than 100 µM for the second.

Work on `O=C1CC(=O)c2c(N3CCCC3)sc(N3CCCC3)c21` yielded a TGI greater than 100 µM.

Test system: SK-MEL-28 melanoma
Experiment: NCI tumour cell line growth inhibition, 48 h

Compared with `CC1(C)OC(C(C)(C)O)C(C(C)(C)O)O1` (centres undefined), `N#CC1=C(N)OC2=C(CCCc3ccc([N+](=O)[O-])cc32)C1c1ccccc1` (centres undefined) is lower in TGI: greater than 100 µM for the first, 22.4 µM for the second.

`COC(=O)[C@@H]1CCc2nc3ccccc3c(=O)n21` and `CN(C)c1nc2nonc2nc1Nc1ccccc1` cannot be ordered by TGI: greater than 100 µM for the first, greater than 100 µM for the second.

Molecule `O=C1CC(=O)c2c(N3CCCC3)sc(N3CCCC3)c21` has a TGI greater than 100 µM.

Test system: DU-145 prostate
Experiment: NCI tumour cell line growth inhibition, 48 h

Going from `CC1(C)OC(C(C)(C)O)C(C(C)(C)O)O1` (centres undefined) to `N#CC1=C(N)OC2=C(CCCc3ccc([N+](=O)[O-])cc32)C1c1ccccc1` (centres undefined), the TGI falls from greater than 100 µM to 15.4 µM.

`COC(=O)[C@@H]1CCc2nc3ccccc3c(=O)n21` and `CN(C)c1nc2nonc2nc1Nc1ccccc1` cannot be ordered by TGI: greater than 100 µM for the first, greater than 100 µM for the second.

In the case of `O=C1CC(=O)c2c(N3CCCC3)sc(N3CCCC3)c21`, the TGI is reported as greater than 100 µM.

Test system: SNB-19 CNS
Experiment: NCI tumour cell line growth inhibition, 48 h

Going from `CC1(C)OC(C(C)(C)O)C(C(C)(C)O)O1` (centres undefined) to `N#CC1=C(N)OC2=C(CCCc3ccc([N+](=O)[O-])cc32)C1c1ccccc1` (centres undefined), the TGI falls from greater than 100 µM to 45.2 µM.

`O=C1CC(=O)c2c(N3CCCC3)sc(N3CCCC3)c21` and `CN(C)c1nc2nonc2nc1Nc1ccccc1` cannot be ordered by TGI: greater than 100 µM for the first, greater than 100 µM for the second.

Test system: TK-10 renal
Experiment: NCI tumour cell line growth inhibition, 48 h

Going from `CC1(C)OC(C(C)(C)O)C(C(C)(C)O)O1` (centres undefined) to `N#CC1=C(N)OC2=C(CCCc3ccc([N+](=O)[O-])cc32)C1c1ccccc1` (centres undefined), the TGI falls from greater than 100 µM to 49.1 µM.

`COC(=O)[C@@H]1CCc2nc3ccccc3c(=O)n21` and `CN(C)c1nc2nonc2nc1Nc1ccccc1` cannot be ordered by TGI: greater than 100 µM for the first, greater than 100 µM for the second.

In the case of `O=C1CC(=O)c2c(N3CCCC3)sc(N3CCCC3)c21`, the TGI is reported as greater than 100 µM.

Test system: RXF 393 renal
Experiment: NCI tumour cell line growth inhibition, 48 h

Compared with `CC1(C)OC(C(C)(C)O)C(C(C)(C)O)O1` (centres undefined), `N#CC1=C(N)OC2=C(CCCc3ccc([N+](=O)[O-])cc32)C1c1ccccc1` (centres undefined) is lower in TGI: greater than 100 µM for the first, 8.88 µM for the second.

`O=C1CC(=O)c2c(N3CCCC3)sc(N3CCCC3)c21` and `CN(C)c1nc2nonc2nc1Nc1ccccc1` cannot be ordered by TGI: greater than 100 µM for the first, greater than 100 µM for the second.

Test system: SR leukemia
Experiment: NCI tumour cell line growth inhibition, 48 h

Compared with `CC1(C)OC(C(C)(C)O)C(C(C)(C)O)O1` (centres undefined), `N#CC1=C(N)OC2=C(CCCc3ccc([N+](=O)[O-])cc32)C1c1ccccc1` (centres undefined) is lower in TGI: greater than 100 µM for the first, 9.56 µM for the second.

`COC(=O)[C@@H]1CCc2nc3ccccc3c(=O)n21` and `CN(C)c1nc2nonc2nc1Nc1ccccc1` cannot be ordered by TGI: greater than 100 µM for the first, greater than 100 µM for the second.

Work on `O=C1CC(=O)c2c(N3CCCC3)sc(N3CCCC3)c21` yielded a TGI greater than 100 µM.

Test system: SW-620 colon
Experiment: NCI tumour cell line growth inhibition, 48 h

Compared with `CC1(C)OC(C(C)(C)O)C(C(C)(C)O)O1` (centres undefined), `N#CC1=C(N)OC2=C(CCCc3ccc([N+](=O)[O-])cc32)C1c1ccccc1` (centres undefined) is lower in TGI: greater than 100 µM for the first, 15.7 µM for the second.

`COC(=O)[C@@H]1CCc2nc3ccccc3c(=O)n21` and `CN(C)c1nc2nonc2nc1Nc1ccccc1` cannot be ordered by TGI: greater than 100 µM for the first, greater than 100 µM for the second.

Work on `O=C1CC(=O)c2c(N3CCCC3)sc(N3CCCC3)c21` yielded a TGI greater than 100 µM.

Test system: SK-OV-3 ovarian
Experiment: NCI tumour cell line growth inhibition, 48 h

Compared with `CC1(C)OC(C(C)(C)O)C(C(C)(C)O)O1` (centres undefined), `N#CC1=C(N)OC2=C(CCCc3ccc([N+](=O)[O-])cc32)C1c1ccccc1` (centres undefined) is lower in TGI: greater than 100 µM for the first, 58.5 µM for the second.

`COC(=O)[C@@H]1CCc2nc3ccccc3c(=O)n21` and `CN(C)c1nc2nonc2nc1Nc1ccccc1` cannot be ordered by TGI: greater than 100 µM for the first, greater than 100 µM for the second.

`O=C1CC(=O)c2c(N3CCCC3)sc(N3CCCC3)c21` gave a TGI greater than 100 µM.

Test system: OVCAR-4 ovarian
Experiment: NCI tumour cell line growth inhibition, 48 h

In the case of `CC1(C)OC(C(C)(C)O)C(C(C)(C)O)O1` (centres undefined), the TGI is reported as greater than 100 µM.
